Assay results: patent EP0656952B1, “CATIONIC PEPTIDES AND METHOD FOR PRODUCTION” (THE UNIVERSITY OF BRITISH COLUMBIA, priority 1992, dated 1994)

How the values were obtained:
[1] = tested on: S. typhimurium defensin sensitive strain (C590); assay: Minimum inhibitory concentration (MIC), broth dilution; type: cell-based; settings: MIC comparison with parent strain
Protocol: (§1) The minimum inhibitory concentrations of (MIC) of CEME, CEMA and melittin were determined for a number of different bacteria (Table 2). Briefly, cells were grown overnight at 37°C in LB-S (Luria broth without any salt supplement) and diluted one in 10,000 in the same medium to give concentrations of about 10^4 to 10^5 CFU/ml. The broth dilutions were set up in a 96 well microtiter plate by putting 200µl of LB-S containing the initial concentration of antibiotic or compound in column 1 and 100 µl of the same medium in columns 2-12. The compounds were diluted by taking 100 µl of broth from column 1 and mixing it with column 2, resulting in a one in two dilution. This was continued to column 10. Finally, 10 µl of bacteria were pipetted into columns 1-11, and the plates incubated overnight at 37°C. The next day the plates were scored for growth in the wells, and the MIC determined.

[2] = tested on: a number of different bacteria; assay: as above; type: cell-based; settings: MIC comparison
Protocol: as §1

E. coli strain DC2 = assay: Acid-urea gel overlay antibacterial activity test; type: cell-based; settings: acid-urea gel overlaid with agar containing ≈ 10^5 E. coli strain DC2, overnight at 37°C
Protocol: A sample of the partially purified CEME protein was electrophoresed on a 15% acid-urea gel, which separates proteins based on charge and mass (Panyim and Chalkey, Arch. Biochem. Biophys., 130:337, 1969). The pH of the buffer is acidic (≈ pH 5.0) and the polarity is reversed such that proteins migrate to the cathode. Therefore, the small cationic peptides run relatively quickly through the gel and thus can be easily identified. Antibacterial activity was tested as previously described (Hultmark, Eur. J. Biochem., 106:7, 1980). The gel was incubated in Mueller Hinton broth + 0.2M NaPO4 pH 7.4 for 1 hr. It was overlaid with 5 mls of the same media containing 0.6% agar and ≈ 10^5 E. coli strain DC2, and then again with 5 ml of the same media containing only 0.6% agar. […] Melittin is used as a positive control due to its antibacterial activity and similarity in size and PI values.

[3] = Synergy: MIC of antibiotics in the presence of sub-MIC levels of cationic peptides; type: cell-based
Protocol: as §1
The ability of the cationic peptides to work synergystically was examined by determining the MIC values for some commonly used antibiotics in the presence of sub-MIC levels of cationic peptides (Table 4). […] This may be due to the high membrane permeabilizing activity of CEMA (see below). However, the peptides did lower the MIC of polymyxin B, possibly due to the fact that they are all taken up by the same pathway and are therefore aiding each other's uptake. […]

P. aeruginosa H309 = assay: Lysozyme lysis assay (membrane permeabilization); type: cell-based; settings: P. aeruginosa data only
Protocol: Membrane permeabilization by polycationic compounds was measured in two different assays. The first assay measured membrane disruption by the ability of lysozyme to reach the periplasm and cause cell lysis. […] The uptake of tysozyme into whole cells due to membrane permeabilization by various compounds was previously described in Hancock, et al., Antimicrobial Agents and Chemo., 19:777; 1981. Overnight cultures of P. aeruginosa H309 or E. cloacae 218R1 grown in LB-S were diluted 1 in 50 in fresh medium and grown to an OD600 ≈ 0.5-0.6. The cells were harvested in a Silencer H-103N clinical centrifuge at 1800 g for 10 min, washed once with one volume of assay buffer (5 mM HEPES pH 7.2, 5 mM KCN), and resuspended in the same buffer to an OD600 of 0.5. Assays consisted of 600 µl of cells with 50 µg/ml of chicken egg white lysozyme and varying concentrations of cationic compounds. Cell lysis was measured as a decrease in the OD600 in a Perkin-Emmer dual beam spectrophotometer. Parallel experiments performed without lysozyme enabled the measurement of the lytic activity of the compounds themselves. To test whether or not permeability to lysozyme could be inhibited by divalent cations, various concentrations of MgCl2 were added to the assay after the addition of lysozyme and before the addition of the test compound.

P. aeruginosa = assay: 1-N-phenylnaphthylamine (NPN) uptake assay; type: cell-based; settings: 10 µM NPN, FIGURE 7
Excerpt: (§2) The second assay determined membrane permeability by the ability of 1-N-phenylnaphthylamine (NPN), a small fluorescent probe, to insert itself into the membrane. Normally, very little NPN can penetrate the outer membrane, but in the presence of a membrane permeabilizer it can insert into the hydrophobic membrane resulting in an increase in fluorescence (FIGURES 7 and 8). This N-phenylnaphthylamine uptake assay was previously described by Loh, et al., Antimicrobial Agents and Chemo., 26:546, 1984. Cells were prepared exactly the same as for the lysozyme lysis assay. 1-N-phenylnaphthylamine (NPN) was dissolved in acetone at a concentration of 500 µM. NPN fluorescence was measured in a Perkin-Elmer 650-10S fluorescent spectrophotometer using excitation and emission wavelengths set to 350 nm and 420 nm respectively, with slit widths of 5 nm. The assay was standardized by adding 20 µl of NPN (final concentration of 10 µM) and 10µl of 0.64 mg/ml of polymyxin B (final concentration of 6.4 µg/ml) into 1 ml of cells, and adjusting the resulting fluorescence to read 90% deflection (90 arbitrary units). Various compounds were tested by adding 10 µl of different concentrations to a cuvette containing 1 ml of cells and 10 µM NPN. Permeabilizing activity was designated as the total fluorescence minus the fluorescence due to NPN alone. Following the fluorescence measurement, the OD600 of the cells was taken to ensure no significant cell lysis had occurred.

P. aeruginosa LPS = assay: Dansyl polymyxin (DPx) displacement assay with purified LPS; type: binding; settings: on a µM basis, compared with polymyxin B
Protocol: DPx is a derivative of polymyxin that fluoresces strongly when bound to LPS, but weakly when free in solution. In this assay, DPx was incubated with LPS to saturate the binding sites and then, while polycationic compounds are titrated into the reaction, displacement of the DPx was monitored by the decrease in fluorescence (FIGURE 9). P. aeruginosa LPS was isolated as previously described (Darveau, et al., J. of Bacteriology, 155:831, 1983) Dansyl polymyxin was synthesized as described by Schindler, et al., B. Antimicrobial Agents and Chemo, 8:95, 1975.
Briefly, 40 mgs of polymyxin B and 10 mgs of dansyl chloride were mixed in 2 mls of 60 mM NaHC03 and 40% acetone and incubated in the dark for 90 minutes. […] The dansyl polymyxin was resuspended in 5 mM Hepes pH 7.0, quantitated by dinitrophenylation and stored in aliquots at -20°C.
The method of Moore, et al., (Antimicrobial Agents end Chemo., 29:496, 1987), was used to test how much DPx was needed to saturate the binding sties on LPS. Briefly, 5 µl samples of 100 µM DPx were titrated sequentially into 1ml of 3 µg/ml of LPS until a maximum fluorescence was reached. The fluorescence was measured in a Perkin-Elmer 650-10S fluorescence spectrophotometer with an excitation wavelength of 340 nm and an emission wavelength of 485 nm using slit widths of 5 nm. […]

E. cloacae = assay: 1-N-phenylnaphthylamine (NPN) uptake assay; type: cell-based; settings: 10 µM NPN, FIGURE 8
Excerpt: as §2

Row | Compound | sensitivity of the S. typhimurium defensin sensitive strain (C590) [1] | resistance of the mutant SC9252 [2] | zones of clearing at the migration site (E. coli strain DC2) | effect on the MIC of polymyxin B [3] | permeabilizer for lysozyme relative to gentamicin (P. aeruginosa H309; lysis without lysozyme taken into consideration) | cell lysis in the absence of lysozyme (P. aeruginosa H309; increased concentrations of peptide) | opening up the membrane to NPN (P. aeruginosa) | affinity for LPS (I50) (P. aeruginosa LPS) | opening up the membrane to NPN (E. cloacae)
1 | CC(C)(O/N=C(\C(=O)N[C@@H]1C(=O)N2C(C(=O)[O-])=C(C[n+]3ccccc3)CS[C@H]12)c1csc(N)n1)C(=O)O [ceftazidime] | unchanged | increased resistance |  |  |  |  |  |  | 
2 | gentamicin | two-fold more sensitive |  |  |  |  |  |  |  | 
3 | melittin | two-fold more sensitive |  | zones of clearing | lower than those in the presence of CEME and CEMA | 5- to 10 fold | cell lysis in the absence of lysozyme occurred | less active | slightly lower affinities | 
4 | polymyxin B | four-fold more sensitive | increased resistance |  |  |  |  | equally active |  | equally active
